pIC50: −log10 of the molar value.
Target: T1, NTCP (Homo sapiens, UniProt Q14973)
T1 sequence (Q14973 1-349): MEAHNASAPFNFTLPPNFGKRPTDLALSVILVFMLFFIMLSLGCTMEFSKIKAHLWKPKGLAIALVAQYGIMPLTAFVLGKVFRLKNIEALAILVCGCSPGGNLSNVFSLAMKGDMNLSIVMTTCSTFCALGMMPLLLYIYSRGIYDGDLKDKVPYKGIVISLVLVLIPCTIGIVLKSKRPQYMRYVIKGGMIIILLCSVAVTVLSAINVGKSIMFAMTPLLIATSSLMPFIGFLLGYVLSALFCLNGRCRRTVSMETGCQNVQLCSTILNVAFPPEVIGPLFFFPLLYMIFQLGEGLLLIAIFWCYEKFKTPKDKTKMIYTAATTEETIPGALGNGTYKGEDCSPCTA
Assay: [3H]-TCA uptake assay (NTCP inhibition)
Assay type: cell-based
Conditions: for IC50: given as a range; for pIC50: IC50, given as a range
Method: [^3H]-TCA uptake assay. PTH and HepG2-NTCP cells were cultured in PMM for 24 hours to induce NTCP expression. After treated by DMSO or test compounds for 2 hours, the cells were then incubated with 1 μM [^3H]-taurocholate acid dissolved in Na^+ Ringer's buffer (the concentration of Na was 145 mM) for 15 minutes at 37° C. Subsequently, the cells were washed once in phosphate-buffered saline (PBS) and lysed in 50 μL 1% TritonX-100 in H2O for 5 minutes at room temperature. The lysate were totally transferred into a liquid scintillation 96 well plate and mixed with 200 μL liquid scintillation cocktail (Ultima Gold XR, PerkinElmer). Liquid scintillation counting was performed on a PerkinElmer 1450 LSC liquid scintillation counter.

[1] = marked * (asterisk not explained)

Compound	IC50 (assay not given) [nM]	pIC50 [1]	further results
CCC1NC(=O)C(C2OC(OCc3ccccc3Cl)CC2C)N(C)C(=O)C(C(C)C)N(C)C(=O)C(CC(C)C)N(C)C(=O)C(CC(C)C)N(C)C(=O)C(C)NC(=O)C(C)NC(=O)C(CC(C)C)N(C)C(=O)C(C(C)C)NC(=O)C(CC(C)C)N(C)C(=O)CN(C)C1=O [Compound 84A, [2-((2R,3R)-5-(2-chlorobenzyloxy)-3-methyltetrahydrofuran-2-yl)-2-(methylamino)acetic acid]^1-cyclosporin A]	1 to 1000		
CCC1NC(=O)C(C2OC(Oc3ccc(C)cc3)CC2C)N(C)C(=O)C(C(C)C)N(C)C(=O)C(CC(C)C)N(C)C(=O)C(CC(C)C)N(C)C(=O)C(C)NC(=O)C(C)NC(=O)C(CC(C)C)N(C)C(=O)C(C(C)C)NC(=O)C(CC(C)C)N(C)C(=O)CN(C)C1=O (stereo not shown) [Compound 2A-o]		4.00 to 6.00	
CCC1NC(=O)C(C2OC(Sc3ccc(OS(C)(=O)=O)cc3)CC2C)N(C)C(=O)C(C(C)C)N(C)C(=O)C(CC(C)C)N(C)C(=O)C(CC(C)C)N(C)C(=O)C(C)NC(=O)C(C)NC(=O)C(CC(C)C)N(C)C(=O)C(C(C)C)NC(=O)C(CC(C)C)N(C)C(=O)CN(C)C1=O [Compound 5A, [2-((2R,3R)-3-methyl-5-(4-(methylsulfonyloxy)phenylthio)tetrahydrofuran-2-yl)-2-(methylamino)acetic acid]^1-cyclosporin A]			pIC50 (assay not given): 5.00 to 6.00
CCC1NC(=O)C(C2OC(Sc3cccc(OC(C)C)c3)CC2C)N(C)C(=O)C(C(C)C)N(C)C(=O)C(CC(C)C)N(C)C(=O)C(CC(C)C)N(C)C(=O)C(C)NC(=O)C(C)NC(=O)C(CC(C)C)N(C)C(=O)C(C(C)C)NC(=O)C(CC(C)C)N(C)C(=O)CN(C)C1=O [Compound 30A, [2-((2R,3R)-5-(3-isopropoxyphenylthio)-3-methyltetrahydrofuran-2-yl)-2-(methylamino)acetic acid]^1-cyclosporin]	1 to 1000		
CCC1NC(=O)C(C2OC(SC(C)c3cc(Cl)cc(Cl)c3)CC2C)N(C)C(=O)C(C(C)C)N(C)C(=O)C(CC(C)C)N(C)C(=O)C(CC(C)C)N(C)C(=O)C(C)NC(=O)C(C)NC(=O)C(CC(C)C)N(C)C(=O)C(C(C)C)NC(=O)C(CC(C)C)N(C)C(=O)CN(C)C1=O (stereo not shown) [Compound 92A-s]		4.00 to 6.00	
CCOc1cccc(SC2CC(C)C(C3C(=O)NC(CC)C(=O)N(C)CC(=O)N(C)C(CC(C)C)C(=O)NC(C(C)C)C(=O)N(C)C(CC(C)C)C(=O)NC(C)C(=O)NC(C)C(=O)N(C)C(CC(C)C)C(=O)N(C)C(CC(C)C)C(=O)N(C)C(C(C)C)C(=O)N3C)O2)c1 [Compound 29A, [2-((2R,3R)-5-(3-ethoxyphenylthio)-3-methyltetrahydrofuran-2-yl)-2-(methylamino)acetic acid]^1-cyclosporin A]	1 to 1000		
CCC1NC(=O)C(C2OC(SCc3ccc(N4CCOCC4)cc3)CC2C)N(C)C(=O)C(C(C)C)N(C)C(=O)C(CC(C)C)N(C)C(=O)C(CC(C)C)N(C)C(=O)C(C)NC(=O)C(C)NC(=O)C(CC(C)C)N(C)C(=O)C(C(C)C)NC(=O)C(CC(C)C)N(C)C(=O)CN(C)C1=O (stereo not shown) [Compound 99A-s]		4.00 to 6.00	
CCC1NC(=O)C(C2OC(Sc3cccc(OCc4ccc(F)cc4)c3)CC2C)N(C)C(=O)C(C(C)C)N(C)C(=O)C(CC(C)C)N(C)C(=O)C(CC(C)C)N(C)C(=O)C(C)NC(=O)C(C)NC(=O)C(CC(C)C)N(C)C(=O)C(C(C)C)NC(=O)C(CC(C)C)N(C)C(=O)CN(C)C1=O [Compound 21A, [2-((2R,3R)-5-(3-(4-fluorobenzyloxy)phenylthio)-3-methyltetrahydrofuran-2-yl)-2-(methylamino)acetic acid]^1-cyclosporin A]	1 to 1000		
CCC1NC(=O)C(C2OC(Oc3ccc(OCc4ccccc4)cc3)CC2C)N(C)C(=O)C(C(C)C)N(C)C(=O)C(CC(C)C)N(C)C(=O)C(CC(C)C)N(C)C(=O)C(C)NC(=O)C(C)NC(=O)C(CC(C)C)N(C)C(=O)C(C(C)C)NC(=O)C(CC(C)C)N(C)C(=O)CN(C)C1=O (stereo not shown) [Compound 57A-o]		4.00 to 6.00	
CCC1NC(=O)C(C2OC(Oc3ccc(N4CCN(C)CC4)cc3)CC2C)N(C)C(=O)C(C(C)C)N(C)C(=O)C(CC(C)C)N(C)C(=O)C(CC(C)C)N(C)C(=O)C(C)NC(=O)C(C)NC(=O)C(CC(C)C)N(C)C(=O)C(C(C)C)NC(=O)C(CC(C)C)N(C)C(=O)CN(C)C1=O (stereo not shown) [Compound 6A-o]		4.00 to 6.00	

Reference: patent US10961231B2, “NTCP inhibitors” (National Institute of Biological Sciences, Beijing, priority 2018, dated 2021)
